Experimental data: patent publication US9181176B2, “7-[3,5-dihydroxy-2-(3-hydroxy-5-phenyl-pent-1-enyl)-cyclopentyl]-N-ethyl-hept-5-enamide (bimatoprost) in crystalline form II, methods for preparation, and methods for use thereof” (Allergan, Inc., priority 2009, dated 2015)

What was measured:
Type in all cases: physicochemical
[1] = Determination of the aqueous solubility of polymorph II; conditions: 0.4% suspension rotated continuously over a weekend; supernatants assayed by HPLC
Protocol: The aqueous solubility of polymorph II was determined by preparing in duplicate a 0.4% suspension of a formal stability sample (lot X10510 stored at 25° C./60% RH for 23 months, confirmed as polymorph II). Temperature Program 1 (hold for 1.0 minute at 30° C. and then heat from 30° C. to 85° C. at 2.0° C. per minute), was used to test the 23-month stability sample by DSC to reconfirm the presence of only polymorph II (which was, indeed, the case). The suspension was allowed to rotate continuously over a weekend. The supernatants were assayed by HPLC using X11192 Secondary Reference Standard to determine the drug contents. […] Since the active pharmaceutical ingredient will be used in a formulation at a concentration that is only one-tenth of the aqueous solubility of the active pharmaceutical ingredient (as either polymorph), there is no effect of crystal habit on product characteristics or manufacturing process.

[2] = Solid-state polymorphic transformation in laboratory stress study samples (DSC); conditions: 40° C., 70-day time-point
Protocol: Two Bimatoprost lots (X11192 and X10510) were subjected to a variety of experimental stress conditions at 40° C. (see Table 6). The experimental design included ambient air and argon headspaces, exposure to fluorescent light, and different surface-to-volume ratios. The 70-day time-point samples were analyzed by HPLC and DSC.

[3] = Solid-state polymorphic transformation in samples of the formal stability program (DSC, IR); conditions: stored 18 months at 25° C./60% RH
Protocol: The colored particle was separated from the white drug substance, and DSC was performed on both. In order to determine whether bimatoprost spontaneously converts from polymorph I to polymorph II at elevated temperatures (i.e. higher than the prescribed storage temperature), a number of other lots in the formal stability program were also analyzed by DSC. All the formal stability samples tested consisted of polymorph II. Since the control (frozen) samples from the same lots were previously analyzed by DSC with the results showing that none of them contained polymorph II, there is a clear indication that a polymorphic transformation had occurred under the stability conditions employed.

SMILES: CCNC(=O)CCCC=CCC1C(O)CC(O)C1C=CC(O)CCc1ccccc1 (stereo not shown) [polymorph II, 7-[3,5-dihydroxy-2-(3-hydroxy-5-phenyl-pent-1-enyl)-cyclopentyl]-N-ethyl-hept-5-enamide]
- aqueous solubility [1]: 0.3 % w/w

SMILES: CCNC(=O)CCC/C=C\C[C@@H]1[C@@H](/C=C/[C@@H](O)CCc2ccccc2)[C@H](O)C[C@@H]1O [X11192, bimatoprost]
- polymorphic form after stress (DSC) ([2]; air or argon headspace, light or dark): polymorph I

SMILES: CCNC(=O)CCC/C=C\C[C@@H]1[C@@H](/C=C/[C@@H](O)CCc2ccccc2)[C@H](O)C[C@@H]1O [X10510, bimatoprost]
- polymorphic form after stress (DSC) ([2]; ambient air headspace, regardless of light exposure): partial morphological conversion in which both polymorphs I and II were present simultaneously
- polymorphic form after storage (DSC and IR) [3]: yielded substantial amounts of polymorph II
